For ten compounds, mutagenic call results are on record in PubChem BioAssay AID1259407 (Chemical Carcinogenesis Research Information System (CCRIS), 2018).

This data set relates to CCRIS mutagenicity, Ames/micronucleus/aberration tests. The data set can be described thus: CCRIS mutagenicity studies.
[1] abbreviates: Test System: AMES SALMONELLA TYPHIMURIUM, Strain/Indicator: TA98, Metabolic Activation: NONE, Method: STANDARD PLATE.
Where [2] appears, read: Test System: AMES SALMONELLA TYPHIMURIUM, Strain/Indicator: TA100, Metabolic Activation: NONE, Method: STANDARD PLATE.
Setting [3] is: Test System: AMES SALMONELLA TYPHIMURIUM, Strain/Indicator: TA100, Metabolic Activation: NONE, Method: PREINCUBATION
Setting [4] is: Test System: AMES SALMONELLA TYPHIMURIUM, Strain/Indicator: TA1537, Metabolic Activation: NONE, Method: STANDARD PLATE.

The structures appear in SMILES notation. Active and inactive are the calls of the source. No rule for the calls is given here.

As for `BrCc1ccc(Br)cc1`, the mutagenic call (Test System: AMES SALMONELLA TYPHIMURIUM, Strain/Indicator: TA97A, Metabolic Activation: NONE, Method: STANDARD PLATE) was “inactive; negative”; the mutagenic call (Test System: AMES SALMONELLA TYPHIMURIUM, Strain/Indicator: TA97A, Metabolic Activation: RAT LIVER S-9, PHENOBARBITAL, BETA-NAPHTHOFLAVONE, 3.5%, Method: STANDARD PLATE) was “inactive; negative”; the mutagenic call under setting [1] is “inactive; negative”; the mutagenic call (Test System: AMES SALMONELLA TYPHIMURIUM, Strain/Indicator: TA98, Metabolic Activation: RAT LIVER S-9, PHENOBARBITAL, BETA-NAPHTHOFLAVONE, 3.5%, Method: STANDARD PLATE) is “inactive; negative”; the mutagenic call under setting [2] was “inactive; negative”; the mutagenic call (Test System: AMES SALMONELLA TYPHIMURIUM, Strain/Indicator: TA100, Metabolic Activation: RAT LIVER S-9, PHENOBARBITAL, BETA-NAPHTHOFLAVONE, 3.5%, Method: STANDARD PLATE) was “inactive; negative”. Also, the mutagenic call reads like this: (Test System: AMES SALMONELLA TYPHIMURIUM, Strain/Indicator: TA1535, Metabolic Activation: NONE, Method: STANDARD PLATE) “inactive; negative”; (Test System: AMES SALMONELLA TYPHIMURIUM, Strain/Indicator: TA1535, Metabolic Activation: RAT LIVER S-9, PHENOBARBITAL, BETA-NAPHTHOFLAVONE, 3.5%, Method: STANDARD PLATE) “inactive; negative”; (Test System: ESCHERICHIA COLI, Strain/Indicator: WP2 UVR A, Metabolic Activation: NONE, Method: STANDARD PLATE) “inactive; negative”; (Test System: ESCHERICHIA COLI, Strain/Indicator: WP2 UVR A, Metabolic Activation: RAT LIVER S-9, PHENOBARBITAL, BETA-NAPHTHOFLAVONE, 3.5%, Method: STANDARD PLATE) “inactive; negative”.
`Cc1ccc([N+](=O)[O-])cc1NO`: the mutagenic call is “inactive; negative” (Test System: AMES SALMONELLA TYPHIMURIUM, Strain/Indicator: TA98, Metabolic Activation: NONE, Method: SUSPENSION/PLATE); “inactive; negative” (Test System: AMES SALMONELLA TYPHIMURIUM, Strain/Indicator: TA98, Metabolic Activation: RAT, LIVER, S-9, PHENOBARBITAL AND 5,6-BENZOFLAVONE, Method: SUSPENSION/PLATE); “inactive; negative” (Test System: AMES SALMONELLA TYPHIMURIUM, Strain/Indicator: TA100, Metabolic Activation: NONE, Method: SUSPENSION/PLATE); “inactive; negative” (Test System: AMES SALMONELLA TYPHIMURIUM, Strain/Indicator: TA100, Metabolic Activation: RAT, LIVER, S-9, PHENOBARBITAL AND 5,6-BENZOFLAVONE, Method: SUSPENSION/PLATE).
Take `COCCN(CCOC)c1cc(NC(C)=O)c(-n2nc3c(Br)cc(N)c(Cl)c3n2)cc1OC`: the mutagenic call is, setting by setting: (Test System: AMES SALMONELLA TYPHIMURIUM, Strain/Indicator: TA98, Metabolic Activation: RAT LIVER S-9, AROCLOR 1254, Method: STANDARD PLATE) “active; positive”; (Test System: AMES SALMONELLA TYPHIMURIUM, Strain/Indicator: TA100, Metabolic Activation: RAT LIVER S-9, AROCLOR 1254, Method: STANDARD PLATE) “active; positive”; (Test System: AMES SALMONELLA TYPHIMURIUM, Strain/Indicator: TA104, Metabolic Activation: RAT LIVER S-9, AROCLOR 1254, Method: STANDARD PLATE) “active; positive”; (Test System: AMES SALMONELLA TYPHIMURIUM, Strain/Indicator: YG1024, Metabolic Activation: RAT LIVER S-9, PHENOBARBITAL, 5,6-BENZOFLAVONE (10%), Method: PREINCUBATION) “active; positive”.
For the compound `C/C(C(=O)O)=C(\Cl)C(=O)O`, the mutagenic call was “inactive; negative” (Test System: AMES SALMONELLA TYPHIMURIUM, Strain/Indicator: TA98, Metabolic Activation: NONE, Method: PREINCUBATION); “inactive; negative” under setting [3]; “inactive; negative” (Test System: AMES SALMONELLA TYPHIMURIUM, Strain/Indicator: TA104, Metabolic Activation: NONE, Method: PREINCUBATION).
As for `c1ccc2c(c1)Oc1ccccc1O2`, the mutagenic call by setting is: (Test System: AMES SALMONELLA TYPHIMURIUM, Strain/Indicator: TA98(1,8-DNP6), Metabolic Activation: RAT, LIVER, S-9, PCB, Method: SUSPENSION) “inactive; negative”; (Test System: AMES SALMONELLA TYPHIMURIUM, Strain/Indicator: TA98(NR), Metabolic Activation: RAT, LIVER, S-9, PCB, Method: SUSPENSION) “inactive; negative”; (Test System: AMES SALMONELLA TYPHIMURIUM, Strain/Indicator: TA98, Metabolic Activation: NONE, Method: SUSPENSION) “inactive; negative”; (Test System: AMES SALMONELLA TYPHIMURIUM, Strain/Indicator: TA98, Metabolic Activation: RAT, LIVER, S-9, PCB, Method: SUSPENSION) “inactive; negative”; (Test System: AMES SALMONELLA TYPHIMURIUM, Strain/Indicator: TA100, Metabolic Activation: NONE, Method: SUSPENSION) “inactive; negative”; (Test System: AMES SALMONELLA TYPHIMURIUM, Strain/Indicator: TA100, Metabolic Activation: RAT, LIVER, S-9, PCB, Method: SUSPENSION) “inactive; negative”.
On to `Cc1cc(O)c2c(c1)C(=O)C13C(=C2O)C(=O)C2C(O)C1C1C(O)C3C(=O)C3=C(O)c4c(O)cc(C)cc4C(=O)C321` (stereo unspecified), for which the mutagenic call is, setting by setting: (Test System: AMES SALMONELLA TYPHIMURIUM, Strain/Indicator: TA98, Metabolic Activation: RAT, LIVER, S-9, AROCLOR 1254, Method: STANDARD PLATE) “inactive; negative”; (Test System: AMES SALMONELLA TYPHIMURIUM, Strain/Indicator: TA100, Metabolic Activation: RAT, LIVER, S-9, AROCLOR 1254, Method: STANDARD PLATE) “inactive; negative”; under setting [4], “inactive; negative”; (Test System: AMES SALMONELLA TYPHIMURIUM, Strain/Indicator: TA1537, Metabolic Activation: RAT, LIVER, S-9, AROCLOR 1254, Method: STANDARD PLATE) “inactive; negative”.
In the case of `CC(C)OS(C)(=O)=O`, the mutagenic call (End Point: IN VITRO MICRONUCLEUS, Test System: MOUSE LYMPHOMA L5178Y CELLS, Metabolic Activation: NONE) was “active; positive”; the mutagenic call (End Point: IN VITRO MICRONUCLEUS, Test System: MOUSE LYMPHOMA L5178Y CELLS, Metabolic Activation: RAT, LIVER, S-9) was “active; positive”; the mutagenic call under setting [1] is “active; positive”; the mutagenic call (Test System: AMES SALMONELLA TYPHIMURIUM, Strain/Indicator: TA98, Metabolic Activation: RAT, LIVER, S-9, Method: STANDARD PLATE) was “inactive; negative”; the mutagenic call under setting [3] is “active; positive”; the mutagenic call under setting [2] is “active; positive”. In addition, the mutagenic call is “active; positive” (Test System: AMES SALMONELLA TYPHIMURIUM, Strain/Indicator: TA100, Metabolic Activation: RAT, LIVER, S-9, Method: STANDARD PLATE); “active; positive” (Test System: AMES SALMONELLA TYPHIMURIUM, Strain/Indicator: TA1535, Metabolic Activation: NONE, Method: PREINCUBATION); “active; positive” (Test System: CHINESE HAMSTER V-79, Strain/Indicator: V-79/6-THIOGUANINE, Metabolic Activation: NONE, Method: FLASK ASSAY); “active; positive” (Test System: CHO/HGPRT, Strain/Indicator: CHO-K1-BH4, Metabolic Activation: NONE, Method: STANDARD PLATE).
Turning to `COc1cc(O)c2c(c1)Cc1cc(C)cc(O)c1C2=O`, the mutagenic call is “inactive; negative” under setting [4] and “active; positive” (Test System: AMES SALMONELLA TYPHIMURIUM, Strain/Indicator: TA1537, Metabolic Activation: S-9, Method: STANDARD PLATE).
`O[C@@H]1[C@@H]2O[C@@H]2c2c(ccc3ccc4ccccc4c23)[C@H]1O`: the mutagenic call reads like this: (Test System: E. COLI, Strain/Indicator: CL101P, Metabolic Activation: NONE, Method: PREINCUBATION) “active; positive”; (Test System: E. COLI, Strain/Indicator: CL102P, Metabolic Activation: NONE, Method: PREINCUBATION) “active; positive”; (Test System: E. COLI, Strain/Indicator: CL103P, Metabolic Activation: NONE, Method: PREINCUBATION) “active; positive”; (Test System: E. COLI, Strain/Indicator: CL104P, Metabolic Activation: NONE, Method: PREINCUBATION) “active; positive”; (Test System: E. COLI, Strain/Indicator: CL105P, Metabolic Activation: NONE, Method: PREINCUBATION) “active; positive”; (Test System: E. COLI, Strain/Indicator: CL106P, Metabolic Activation: NONE, Method: PREINCUBATION) “active; positive”.
For the compound `O=C(O[C@H]1Cc2c(O)cc(O)cc2O[C@H]1c1ccc(O)c(O)c1)c1cc(O)c(O)c(O)c1`, the mutagenic call was “inactive; negative” (Test System: Ames Salmonella typhimurium, Strain/Indicator: TA102, Metabolic Activation: None, Method: Preincubation) and “inactive; negative” (Test System: Ames Salmonella typhimurium, Strain/Indicator: TA102, Metabolic Activation: Rat, Liver, S-9, Aroclor 1254 in 0.154 M KCl, Method: Preincubation).
